ChEMBL document CHEMBL5215003, “Evaluating the in Vitro Efficacy of Quassinoids from Eurycoma longifolia and Eurycoma harmandiana against Common Cold Human Coronavirus OC43 and SARS-CoV-2 Using In-Cell Enzyme-Linked Immunosorbent Assay” (J Nat Prod, 2022)
Several values for one entry are separate records, joined by “and”; a condition that tells them apart may be missing. Identical values can stand only once.

Assays:
HCT-8 = assay: Cytotoxicity against human HCT-8 cells assessed as redcution in cell viability at 10 uM incubated for 96 hrs by PrestoBlue reagent based assay relative to control; format: toxicity; settings: hct-8, 96 h
[1] = Cytotoxicity against human MRC5 cells assessed as reduction in cell viability incubated for 48 hrs by PrestoBlue reagent based assay; format: toxicity
[2] = Cytotoxicity against human HCT-8 cells assessed as redcution in cell viability incubated for 96 hrs by PrestoBlue reagent based assay; format: toxicity
[3] = Cytotoxicity against human HepG2 cells assessed as reduction in cell viability incubated for 48 hrs by PrestoBlue reagent based assay; format: toxicity
[4] = Antiviral activity against HCoV-OC43 infected in human HCT-8 cells assessed as inhibition of viral growth at 10 uM incubated for 4 days by ELISA analysis relative to control; format: functional, Human coronavirus OC43; parameters: scale not given: the % may be the effect or the level left; settings: time 4 day
[5] = Cytotoxicity against human Calu-3 cells assessed as reduction in cell viability incubated for 48 hrs by PrestoBlue reagent based assay; format: toxicity
[6] = Cytotoxicity against African green monkey Vero cells assessed as reduction in cell viability incubated for 48 hrs by PrestoBlue reagent based assay; format: toxicity; settings: chlorocebus sabaeus
[7] = Selectivity index, ratio of CC50 for cytotoxicity against human HCT-8 cells to IC50 for antiviral activity against HCoV-OC43 infected in human HCT-8 cells; format: toxicity, cell-based; settings: read-out: Ratio CC50/IC50
[8] = Selectivity index, ratio of CC50 for cytotoxicity against African green monkey Vero cells to IC50 for antiviral activity against SARS-CoV-2 infected in African green monkey Vero cells; format: toxicity, cell-based; settings: read-out: Ratio CC50/IC50
[9] = Antiviral activity against HCoV-OC43 infected in human HCT-8 cells assessed as inhibition of viral growth incubated for 4 days by ELISA analysis; format: functional, cell-based, Human coronavirus OC43; settings: Betacoronavirus 1, HCT-8, 96 h
SARS-CoV-2 [10] = assay: Antiviral activity against SARS-CoV-2 infected in African green monkey Vero cells assessed as inhibition of viral growth incubated for 2 days by ELISA analysis; format: functional, organism-based; settings: Severe acute respiratory syndrome coronavirus 2, Vero, 48 h
SARS-CoV-2 [11] = assay: microbe, parasite or virus in culture; format: functional, organism-based, Vero E6; settings: Severe acute respiratory syndrome coronavirus 2, Vero C1008

O=c1ccc2nccc3c4ccc(O[C@@H]5O[C@H](CO)[C@@H](O)[C@H](O)[C@H]5O)cc4n1c23
Activity (HCT-8): 53.28%
CC50 at 48 h [1]: > 100 µM
CC50 at 96 h [2]: 33.8 µM
CC50 at 48 h [3]: > 100 µM
Activity [4]: <20%
CC50 at 48 h [5]: > 100 µM
CC50 at 48 h [6]: > 100 µM

CC1=CC(=O)[C@@H](O)[C@]2(C)[C@H]3[C@]4(O)OC[C@@]35[C@@H](C[C@@H]12)OC(=O)[C@H](O)[C@@]5(O)[C@]1(CO1)[C@H]4O
selectivity ratio [7]: > 17
Activity (HCT-8): 100.88%
CC50 at 48 h [1]: > 100 µM
CC50 at 96 h [2]: > 100 µM
selectivity ratio [8]: > 10.7
CC50 at 48 h [3]: > 100 µM
Activity [4]: 61.73%
IC50 [9]: 5.88 µM
IC50 (SARS-CoV-2 [10]): 9.39 µM and 3.98 µg/mL
CC50 at 48 h [5]: > 100 µM
CC50 at 48 h [6]: > 100 µM

O=c1ccc2nccc3c4ccc(O)cc4n1c23
Activity (HCT-8): 49.3%
CC50 at 48 h [1]: > 100 µM
CC50 at 96 h [2]: 60.9 µM
CC50 at 48 h [3]: > 100 µM
Activity [4]: <20%
CC50 at 48 h [5]: > 100 µM
CC50 at 48 h [6]: > 100 µM

COC(=O)[C@@]12OC[C@]34[C@H]([C@@H](O)[C@@H]1O)[C@@]1(C)CC(=O)C(O)=C(C)[C@@H]1C[C@H]3OC(=O)[C@H](OC(=O)C=C(C)C)[C@@H]24
IC50 (SARS-CoV-2 [11]): 0.049 µM

COc1ccc2c3ccnc4ccc(=O)n(c2c1)c43
Activity (HCT-8): 33.49%
CC50 at 48 h [1]: > 100 µM
CC50 at 96 h [2]: 21.1 µM
CC50 at 48 h [3]: > 100 µM
Activity [4]: <20%
CC50 at 48 h [5]: > 100 µM
CC50 at 48 h [6]: > 100 µM

COc1ccc2c(c1)[nH]c1c(CCC(=O)O)nccc12
Activity (HCT-8): 108.23%
CC50 at 48 h [1]: > 100 µM
CC50 at 96 h [2]: 79 µM
CC50 at 48 h [3]: > 100 µM
Activity [4]: <20%
CC50 at 48 h [5]: > 100 µM
CC50 at 48 h [6]: > 100 µM

O=C(O)CCc1nccc2c1[nH]c1ccccc12
Activity (HCT-8): 108.05%
CC50 at 48 h [1]: > 100 µM
CC50 at 96 h [2]: > 100 µM
CC50 at 48 h [3]: > 100 µM
Activity [4]: <20%
CC50 at 48 h [5]: > 100 µM
CC50 at 48 h [6]: > 100 µM

O=C(O)CCc1nccc2c1[nH]c1cc(O)ccc12
Activity (HCT-8): 108.23%
CC50 at 48 h [1]: > 100 µM
CC50 at 96 h [2]: 50.1 µM
CC50 at 48 h [3]: > 100 µM
Activity [4]: <20%
CC50 at 48 h [5]: > 100 µM
CC50 at 48 h [6]: > 100 µM

CC1=CC(=O)[C@@H](O)[C@]2(C)[C@H]3[C@]4(O)OC[C@@]35[C@@H](C[C@@H]12)OC(=O)C[C@H]5[C@](C)(O)[C@H]4O
selectivity ratio [7]: 20.8
Activity (HCT-8): 56.66%
CC50 at 48 h [1]: 9.99 µM
CC50 at 96 h [2]: 6.65 µM
selectivity ratio [8]: 61
CC50 at 48 h [3]: 86.7 µM
Activity [4]: 84.54%
IC50 [9]: 0.32 µM
IC50 (SARS-CoV-2 [10]): 430 nM and 0.16 µg/mL
CC50 at 48 h [5]: 98.7 µM
CC50 at 48 h [6]: 26.2 µM

CC1=CC(=O)[C@@H](O)[C@]2(C)[C@H]3[C@]4(O)OC[C@@]35[C@@H](C[C@@H]12)OC(=O)[C@H](O)[C@@]5(O)[C@](C)(O)[C@H]4O
selectivity ratio [7]: 195
Activity (HCT-8): 70.13%
CC50 at 48 h [1]: 54.3 µM
CC50 at 96 h [2]: 48.7 µM
selectivity ratio [8]: > 20.7
CC50 at 48 h [3]: > 100 µM
Activity [4]: 93.71%
IC50 [9]: 0.25 µM
IC50 (SARS-CoV-2 [10]): 4.84 µM and 1.69 µg/mL
CC50 at 48 h [5]: > 100 µM
CC50 at 48 h [6]: > 100 µM

CC1=CC(=O)[C@@H](O)[C@]2(C)C3[C@@H](O)[C@@H]4OC(=O)[C@@H]([C@H]4C)[C@]3(C)C(=O)C[C@@H]12 (some centres undefined)
selectivity ratio [7]: 159
Activity (HCT-8): 71.14%
CC50 at 48 h [1]: 31.2 µM
CC50 at 96 h [2]: 58.9 µM
selectivity ratio [8]: 112
CC50 at 48 h [3]: > 100 µM
Activity [4]: 90.27%
IC50 [9]: 0.37 µM
IC50 (SARS-CoV-2 [10]): 510 nM and 0.18 µg/mL
CC50 at 48 h [5]: 41.9 µM
CC50 at 48 h [6]: 57.1 µM

C=C1CC[C@@H]2[C@](C)(CO)[C@H](O)CC[C@@]2(C)[C@@H]1C/C=C1/C(=O)OC[C@H]1O [ANDROGRAPHOLIDE]
Activity (HCT-8): 93.47%
Activity [4]: 60.4%

COC(=O)[C@@]12OC[C@]34[C@H]([C@@H](O)[C@@H]1O)[C@@]1(C)CC(=O)C(O)=C(C)[C@@H]1C[C@H]3OC(=O)[C@H](OC(=O)CC(C)C)[C@@H]24 [BRUCEINE A]
IC50 (SARS-CoV-2 [11]): 0.011 µM

O=c1ccc2nccc3c4ccccc4n1c23 [CANTHIN-6-ONE]
Activity (HCT-8): 55.55%
CC50 at 48 h [1]: 91.2 µM
CC50 at 96 h [2]: 42.4 µM
CC50 at 48 h [3]: 85.7 µM
Activity [4]: <20%
CC50 at 48 h [5]: > 100 µM
CC50 at 48 h [6]: > 100 µM

C=C1[C@@H](O)[C@@]2(O)OC[C@]34[C@H]2[C@@]2(C)[C@H](O)C(=O)C=C(C)[C@@H]2C[C@H]3OC(=O)[C@H](O)[C@@]14O [EURYCOMANONE]
selectivity ratio [7]: 13.2
Activity (HCT-8): 72.16%
CC50 at 48 h [1]: > 100 µM
CC50 at 96 h [2]: 59.2 µM
selectivity ratio [8]: > 6.68
CC50 at 48 h [3]: > 100 µM
Activity [4]: 57.93%
IC50 [9]: 4.47 µM
IC50 (SARS-CoV-2 [10]): 15 µM and 6.11 µg/mL
CC50 at 48 h [5]: 88.1 µM
CC50 at 48 h [6]: > 100 µM

CCC(CC)COC(=O)[C@H](C)N[P@](=O)(OC[C@H]1O[C@@](C#N)(c2ccc3c(N)ncnn23)[C@H](O)[C@@H]1O)Oc1ccccc1 [REMDESIVIR]
selectivity ratio [7]: 166
Activity (HCT-8): 96.21%
CC50 at 48 h [1]: > 100 µM
CC50 at 96 h [2]: 53.2 µM
selectivity ratio [8]: > 4.44
CC50 at 48 h [3]: 52.6 µM
Activity [4]: 92.45%
IC50 [9]: 0.32 µM
IC50 (SARS-CoV-2 [10]): 22.5 µM
CC50 at 48 h [5]: > 100 µM
CC50 at 48 h [6]: > 100 µM
